Measured values: US9695155B2, “Herbicidal substituted pyrimidinyloxy benzene compounds” (E. I. DU PONT DE NEMOURS AND COMPANY, priority 2013, dated 2017)

How the values were obtained:
[1] = test system: wheat; test: Test A postemergence; assay type: in vivo, Triticum aestivum; conditions: 0 to 100 scale where 0 is no effect and 100 is complete control
Outline: (§1)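 Scoring: eye-based comparison with untreated controls, 0 for no effect through 100 for complete control, at about day 10. Treatments: directed soil spray preemergence; foliar spray postemergence on 2–10 cm plants at the one- to two-leaf stage. Medium: loam soil with sand.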

[2] = test system: barnyardgrass; test: Test B flooded paddy test; assay type: in vivo, Echinochloa crus-galli; conditions: Flood, 250 g ai/ha; 0 to 100 scale where 0 is no effect and 100 is complete control
Outline: (§2)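 Plants at 2-leaf stage; pots flooded to 3 cm above soil and compound applied directly into paddy water, depth held throughout. After 13 to 15 days in greenhouse, visual rating versus controls on 0 (no effect) to 100 (complete control) scale.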

[3] = test system: pigweed; test: Test A postemergence; assay type: in vivo, Amaranthus retroflexus; conditions: 0 to 100 scale where 0 is no effect and 100 is complete control
Outline: as §1

[4] = test system: velvetleaf; test: Test A postemergence; assay type: in vivo, Abutilon theophrasti; conditions: 0 to 100 scale where 0 is no effect and 100 is complete control
Outline: as §1

[5] = test system: velvetleaf; test: Test A preemergence; assay type: in vivo, Abutilon theophrasti; conditions: for Velvetleaf plant response rating: 500 g ai/ha
Outline: as §1

[6] = test system: corn; test: Test A preemergence; assay type: in vivo, Zea mays; conditions: for Corn plant response rating: 500 g ai/ha
Outline: as §1

[7] = test system: giant foxtail; test: Test A preemergence; assay type: in vivo, Setaria faberii; conditions: for Foxtail, Giant plant response rating: 500 g ai/ha
Outline: as §1

[8] = test system: morningglory; test: Test A postemergence; assay type: in vivo, Ipomoea spp.; conditions: 0 to 100 scale where 0 is no effect and 100 is complete control
Outline: as §1

[9] = test system: corn; test: Test A postemergence; assay type: in vivo, Zea mays
Outline: as §1

[10] = test system: pigweed; test: Test A preemergence; assay type: in vivo, Amaranthus retroflexus; conditions: for Pigweed plant response rating: 500 g ai/ha
Outline: as §1

[11] = test system: morningglory; test: Test A preemergence; assay type: in vivo, Ipomoea spp.; conditions: for Morningglory plant response rating: 500 g ai/ha
Outline: as §1

[12] = test system: wheat; test: Test A preemergence; assay type: in vivo, Triticum aestivum; conditions: for Wheat plant response rating: 500 g ai/ha
Outline: as §1

[13] = test system: barnyardgrass; test: Test A postemergence; assay type: in vivo, Echinochloa crus-galli
Outline: as §1

[14] = test system: large (Lg) crabgrass; test: Test A postemergence; assay type: in vivo, Digitaria sanguinalis
Outline: as §1

[15] = test system: sedge, umbrella; test: Test B flooded paddy test; assay type: in vivo, Cyperus difformis; conditions: Flood, 250 g ai/ha; 0 to 100 scale where 0 is no effect and 100 is complete control
Outline: as §2

[16] = test system: Heteranthera limosa; test: Test B flooded paddy test; assay type: in vivo; conditions: Flood, 250 g ai/ha; 0 to 100 scale where 0 is no effect and 100 is complete control
Outline: as §2

[17] = test system: giant foxtail; test: Test A postemergence; assay type: in vivo, Setaria faberii; conditions: 0 to 100 scale where 0 is no effect and 100 is complete control
Outline: as §1

[18] = test system: barnyardgrass; test: Test A preemergence; assay type: in vivo, Echinochloa crus-galli; conditions: for Barnyardgrass plant response rating: 500 g ai/ha
Outline: as §1

[19] = test system: rice; test: Test B flooded paddy test; assay type: in vivo, Oryza sativa; conditions: Flood, 250 g ai/ha; 0 to 100 scale where 0 is no effect and 100 is complete control
Outline: as §2

[20] = test system: large (Lg) crabgrass; test: Test A preemergence; assay type: in vivo, Digitaria sanguinalis; conditions: for Crabgrass, Large plant response rating: 500 g ai/ha
Outline: as §1

[21] = 0 to 100 scale where 0 is no effect and 100 is complete control
[22] = 125 g ai/ha, 0 to 100 scale where 0 is no effect and 100 is complete control
[23] = 500 g ai/ha, 0 to 100 scale where 0 is no effect and 100 is complete control
[24] = 0 to 100 scale, 0 no effect, 100 complete control, approx. 10 days
[25] = 500 g ai/ha, 0 to 100 scale, 0 no effect, 100 complete control

## O=Cc1cccc(Oc2ncc(Br)cn2)c1-n1cc(Br)cn1 [Compound 230]
[1]; 125 g ai/ha
  Wheat plant response rating: 0
[1]; 500 g ai/ha
  Plant response rating, Wheat: 0
[2]
  Plant response rating, Barnyardgrass: 20
[3]; 125 g ai/ha
  Pigweed plant response rating: 30
[3]; 500 g ai/ha
  Plant response rating, Pigweed: 60
[4]; 125 g ai/ha
  Velvetleaf plant response rating: 0
[4]; 500 g ai/ha
  Plant response rating, Velvetleaf: 30
[5]; 125 g ai/ha
  Velvetleaf plant response rating (0 to 100 scale): 0
[5]; [21]
  Velvetleaf plant response rating: 0
[6]; 125 g ai/ha
  Corn plant response rating (0 to 100 scale): 0
[6]; [21]
  Corn plant response rating: 0
[7]; 125 g ai/ha
  Foxtail, Giant plant response rating (0 to 100 scale): 0
[7]; [21]
  Foxtail, Giant plant response rating: 0
[8]; 125 g ai/ha
  Morningglory plant response rating: 0
[8]; 500 g ai/ha
  Plant response rating, Morningglory: 0
[9]; [22]
  Corn plant response rating: 0
[9]; [23]
  Plant response rating, Corn: 0
[10]; 125 g ai/ha
  Pigweed plant response rating (0 to 100 scale): 0
[10]; [21]
  Pigweed plant response rating: 70
[11]; 125 g ai/ha
  Morningglory plant response rating (0 to 100 scale): 0
[11]; [21]
  Morningglory plant response rating: 0
[12]; 125 g ai/ha
  Wheat plant response rating (0 to 100 scale): 0
[12]; [21]
  Wheat plant response rating: 0
[13]; [22]
  Barnyardgrass plant response rating: 0
[13]; [23]
  Plant response rating, Barnyardgrass: 20
[14]; [22]
  Crabgrass, Large plant response rating: 0
[14]; [23]
  Plant response rating, Crabgrass, Large: 10
[15]
  Plant response rating, Sedge, Umbrella: 50
[16]
  Plant response rating, Ducksalad: 20
[17]; 125 g ai/ha
  Foxtail, Giant plant response rating: 0
[17]; 500 g ai/ha
  Plant response rating, Foxtail, Giant: 20
[18]; 125 g ai/ha
  Barnyardgrass plant response rating (0 to 100 scale, 0 is no effect, 100 is complete control): 0
[18]; [21]
  Barnyardgrass plant response rating: 0
[19]
  Plant response rating, Rice: 35
[20]; 125 g ai/ha
  Crabgrass, Large plant response rating (0 to 100 scale): 0
[20]; [21]
  Crabgrass, Large plant response rating: 0

## FC(F)(F)c1cccc(Oc2ncc(Br)cn2)c1-n1cc(Br)cn1 [Compound 77]
[1]; 125 g ai/ha
  Plant response rating, Wheat: 0
[1]; 500 g ai/ha
  Plant response rating, Wheat: 30
[2]
  Plant response rating, Barnyardgrass: 0
[3]; 125 g ai/ha
  Plant response rating, Pigweed: 100
[3]; 500 g ai/ha
  Plant response rating, Pigweed: 100
[4]; 125 g ai/ha
  Plant response rating, Velvetleaf: 80
[4]; 500 g ai/ha
  Plant response rating, Velvetleaf: 100
[5]; [22]
  Plant response rating, Velvetleaf: 60
[5]; [24]
  Velvetleaf plant response rating: 100
[6]; [22]
  Plant response rating, Corn: 0
[6]; [24]
  Corn plant response rating: 0
[7]; [22]
  Plant response rating, Foxtail, Giant: 90
[7]; [24]
  Foxtail, Giant plant response rating: 100
[8]; 125 g ai/ha
  Plant response rating, Morningglory: 70
[8]; 500 g ai/ha
  Plant response rating, Morningglory: 100
[9]; [22]
  Plant response rating, Corn: 20
[9]; [25]
  Plant response rating, Corn: 40
[10]; [22]
  Plant response rating, Pigweed: 100
[10]; [24]
  Pigweed plant response rating: 100
[11]; [22]
  Plant response rating, Morningglory: 10
[11]; [24]
  Morningglory plant response rating: 60
[12]; [22]
  Plant response rating, Wheat: 0
[12]; [24]
  Wheat plant response rating: 0
[13]; [22]
  Plant response rating, Barnyardgrass: 40
[13]; [25]
  Plant response rating, Barnyardgrass: 70
[14]; [22]
  Plant response rating, Crabgrass, Large: 50
[14]; [25]
  Plant response rating, Crabgrass, Large: 90
[15]
  Plant response rating, Sedge, Umbrella: 70
[16]
  Plant response rating, Ducksalad: 40
[17]; 125 g ai/ha
  Plant response rating, Foxtail, Giant: 50
[17]; 500 g ai/ha
  Plant response rating, Foxtail, Giant: 90
[18]; [22]
  Plant response rating, Barnyardgrass: 50
[18]; [24]
  Barnyardgrass plant response rating: 90
[19]
  Plant response rating, Rice: 20
[20]; [22]
  Plant response rating, Crabgrass, Large: 90
[20]; [24]
  Crabgrass, Large plant response rating: 100
